The subject of one series is Aphidius rhopalosiphi. Put plainly: LR50; higher = less toxic. Particulars: not reported; mortality.
The next series deals with Folsomia candida. Particulars: chronic/long-term.
The test system of a further series is Colinus virginianus. Particulars: oral; for LEC: diet.
The test system of the next series is Apis mellifera. Particulars: acute, mortality.
Another series has as its system Neomysis kadiakensis. Particulars: chronic/long-term; duration: 32 days; reproduction.
The next series deals with Canidae. The note with it: chronic; oral; Dog Other; gross pathology.
Where [1] appears, read: short-term, duration: 28 days, oral, diet, no effects.

Regarding `O=C(O)c1cc(C(F)(F)F)nn1[C@@H]1O[C@H](CO)[C@@H](O)[C@H](O)[C@H]1O`, the no observed adverse effect level (NOAEL) (in general, the highest dose or exposure tested at which no adverse effect was seen) with Rattus norvegicus (setting [1]) was 1160 mg/kg-day.
On the same count and under the same terms, the result for `O=C(O)c1cc(C(F)(F)F)[nH]n1` [5-(Trifluoromethyl)-1H-pyrazole-3-carboxylic acid] reads 1160 mg/kg-day.
In the series with Aphidius rhopalosiphi, `Cc1cc(C(F)(F)F)nn1CC(=O)N1CCC(c2nc(C3=NOC(c4c(F)cccc4F)C3)cs2)CC1` (configuration not stated) [Oxathiapiprolin] displayed an LR50 of 116 g/ha. Besides, the LD50 is > 5000 mg/kg with Rattus norvegicus (acute, oral, mortality); > 100 µg/piece in the series on Apis mellifera (dermal); > 40.3 µg/piece with Apis mellifera (oral, unspecified). In addition, the no-observed-adverse-effect level (NOAEL) in the series on Rattus norvegicus (reproduction developmental, other) was 86.4 mg/kg-day; with Canidae, 13.6 mg/kg-day. The NOEC with Folsomia candida stood at 12.5 mg/kg; in the series on Cyprinodon variegatus (chronic/long-term, duration: 35 days, growth), 0.34 mg/L; with Neomysis kadiakensis, 0.058 mg/L; with Tagia sp. (chronic/long-term) it was 15.4 mg/kg. Also, the LC50 is > 0.65 µg/mL in the series on Cyprinodon variegatus (acute, duration: 96 hours, mortality) and > 500 mg/kg with Tagia sp. (acute). The LEL with Colinus virginianus (acute) was > 4250 mg/kg-day. Moreover, the LEC is 107 mg/kg-day with Colinus virginianus (chronic) and > 1280 mg/kg-day in the series on Colinus virginianus (short-term).

The values are drawn from EPA's ToxValDB 9.5 (doi:10.2903/j.efsa.2016.4504).
